From patent US20260325533A1, “CDK INHIBITOR COMPOUNDS” (ALEKSIA THERAPEUTICS, INC., priority 2023, published 2026)
Where two headings read alike, the source gives them in different places.

Tests used:
Type in all cases: biochemical
CDK4/CCND3 = CDK4/CCND3 (Homo sapiens, UniProt P11802); test: CDK4 homogeneous time-resolved fluorescence (HTRF) kinase assay; conditions: CDK4/CCND
Summary of the method: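 Inhibition of CDK4/CCND3 (1.5 nM) was measured at high ATP (1 mM) using 50 nM ULight-labelled 4E-BP1 Thr37/46 peptide; detection used 2 nM europium anti-phospho antibody after EDTA quench. IC50 values came from 11-point half-log titrations typically starting at 10 μM.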

CDK6/CCND1 = CDK6/CCND1 (Homo sapiens, UniProt Q00534); test: CDK6 homogeneous time-resolved fluorescence (HTRF) kinase assay; conditions: CDK6/CCND, 1 mM ATP
Chain of CDK6/CCND1 (Q00534 whole entry): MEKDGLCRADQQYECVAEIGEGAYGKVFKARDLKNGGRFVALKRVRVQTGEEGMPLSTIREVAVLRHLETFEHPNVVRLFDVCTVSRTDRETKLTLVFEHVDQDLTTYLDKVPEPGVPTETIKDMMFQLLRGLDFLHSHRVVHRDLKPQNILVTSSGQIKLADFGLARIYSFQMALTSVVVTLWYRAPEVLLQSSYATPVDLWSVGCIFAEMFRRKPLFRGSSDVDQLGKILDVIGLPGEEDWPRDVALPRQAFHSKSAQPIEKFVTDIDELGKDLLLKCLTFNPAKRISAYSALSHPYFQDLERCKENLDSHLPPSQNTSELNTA
Chain of CDK6/CCND1 (P24385 whole entry partner): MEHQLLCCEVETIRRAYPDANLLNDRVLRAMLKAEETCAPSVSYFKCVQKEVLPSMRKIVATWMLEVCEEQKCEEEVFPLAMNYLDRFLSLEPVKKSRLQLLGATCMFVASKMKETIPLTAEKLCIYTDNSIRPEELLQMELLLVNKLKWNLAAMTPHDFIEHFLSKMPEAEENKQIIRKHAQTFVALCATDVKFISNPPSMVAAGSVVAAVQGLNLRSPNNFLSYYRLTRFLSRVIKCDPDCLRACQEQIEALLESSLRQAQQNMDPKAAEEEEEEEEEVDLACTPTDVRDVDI
Summary of the method: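 1 nM enzyme, 1 mM ATP, 50 nM ULight-4E-BP1 (Thr37/46) peptide, 1% DMSO; 20 min compound preincubation, 60 min reaction, 23 °C. EDTA stop, 2 nM Eu-anti-phospho-4E-BP1 antibody 60 min. TR-FRET 665 nm (or 665/615 ratio); IC50 from 11-point half-log titration, top 10 μM.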

CDK1/CCNB1 = CDK1/CCNB1 (Homo sapiens, UniProt P06493); test: CDK1 homogeneous time-resolved fluorescence (HTRF) kinase assay; conditions: CDK1/CCNB
Chain of CDK1/CCNB1 (P06493 whole entry): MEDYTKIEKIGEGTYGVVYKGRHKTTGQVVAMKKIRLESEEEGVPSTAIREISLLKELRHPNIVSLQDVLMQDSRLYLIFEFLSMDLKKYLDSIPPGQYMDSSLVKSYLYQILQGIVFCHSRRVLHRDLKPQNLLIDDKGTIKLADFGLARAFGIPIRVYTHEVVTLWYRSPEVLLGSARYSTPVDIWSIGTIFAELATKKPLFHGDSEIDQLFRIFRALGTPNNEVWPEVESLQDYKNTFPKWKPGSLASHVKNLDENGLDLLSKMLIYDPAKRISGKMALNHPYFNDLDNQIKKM
Chain of CDK1/CCNB1 (P14635 whole entry partner): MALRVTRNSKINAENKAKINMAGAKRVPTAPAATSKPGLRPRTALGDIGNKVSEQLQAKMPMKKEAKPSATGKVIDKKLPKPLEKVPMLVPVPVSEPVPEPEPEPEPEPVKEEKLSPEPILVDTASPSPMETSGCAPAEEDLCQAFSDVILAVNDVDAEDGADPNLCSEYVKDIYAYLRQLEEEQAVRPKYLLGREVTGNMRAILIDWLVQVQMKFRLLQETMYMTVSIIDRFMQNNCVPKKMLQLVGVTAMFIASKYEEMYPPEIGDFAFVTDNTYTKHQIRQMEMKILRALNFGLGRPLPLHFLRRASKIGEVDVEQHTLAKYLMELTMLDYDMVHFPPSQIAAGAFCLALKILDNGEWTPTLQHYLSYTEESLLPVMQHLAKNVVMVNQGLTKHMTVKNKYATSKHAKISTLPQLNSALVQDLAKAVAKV
Summary of the method: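 Read-out: TR-FRET (Eu anti-phospho-4E-BP1 Thr37/46 antibody, 2 nM; 665 nm or 665/615 ratio) after 60 min phosphorylation of 50 nM ULight-peptide by 0.5 nM CDK1/CCNB1 at 1 mM ATP, 23 °C. Compound preincubated 20 min with enzyme; 1% DMSO.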

CDK2/CCNE1 = CDK2/CCNE1 (Homo sapiens, UniProt P24941); test: CDK2 homogeneous time-resolved fluorescence (HTRF) kinase assay; conditions: CDK2/CCNE
Summary of the method: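 Compounds were titrated 11-point, half-log from typically 10 μM against 3 nM CDK2/cyclin E1 at 1 mM ATP, with a 20 min enzyme preincubation. Phosphorylation of 50 nM ULight-4E-BP1 peptide over 60 min at 23 °C was detected by europium anti-phospho antibody TR-FRET.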

[1] = 25-250 nM, read-out: CDK4/CCND IC50, 25-250 nM
[2] = 25-250 nM, read-out: CDK6/CCND IC50, 25-250 nM
[3] = >250 nM, read-out: CDK1/CCNB IC50 >250 nM
[4] = <25 nM, read-out: CDK2/CCNE IC50, <25 nM
[5] = >250 nM, read-out: CDK4/CCND IC50, >250 nM
[6] = >250 nM, read-out: CDK6/CCND IC50, >250 nM
[7] = 25-250 nM, read-out: CDK2/CCNE IC50, 25-250 nM
[8] = >250 nM, read-out: CDK2/CCNE IC50, >250 nM

Chain of CDK4/CCND3 (P11802 whole entry): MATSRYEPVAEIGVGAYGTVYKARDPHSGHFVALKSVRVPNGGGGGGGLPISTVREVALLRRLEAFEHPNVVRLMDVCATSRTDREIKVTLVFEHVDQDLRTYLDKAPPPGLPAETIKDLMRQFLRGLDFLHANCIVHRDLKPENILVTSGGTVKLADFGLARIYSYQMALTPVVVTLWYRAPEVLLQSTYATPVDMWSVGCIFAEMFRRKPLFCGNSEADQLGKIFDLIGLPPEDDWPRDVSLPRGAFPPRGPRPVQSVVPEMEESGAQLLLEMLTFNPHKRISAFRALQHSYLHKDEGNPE
Chain of CDK4/CCND3 (P30281 whole entry partner): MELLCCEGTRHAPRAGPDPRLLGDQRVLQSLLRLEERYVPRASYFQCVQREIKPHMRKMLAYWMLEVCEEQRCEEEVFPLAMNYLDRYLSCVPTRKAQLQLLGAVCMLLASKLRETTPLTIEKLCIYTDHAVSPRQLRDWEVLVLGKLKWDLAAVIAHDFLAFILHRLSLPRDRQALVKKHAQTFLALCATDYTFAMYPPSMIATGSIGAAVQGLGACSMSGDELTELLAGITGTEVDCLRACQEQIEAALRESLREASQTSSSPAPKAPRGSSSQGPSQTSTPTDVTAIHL

Row | SMILES | IC50 (CDK4/CCND3; [1]) [µM] | IC50 (CDK6/CCND1; [2]) [µM] | IC50 (CDK1/CCNB1; [3]) [µM] | IC50 (CDK2/CCNE1; [4]) [µM] | IC50 (CDK4/CCND3; [5]) [µM] | IC50 (CDK6/CCND1; [6]) [µM] | IC50 (CDK2/CCNE1; [7]) [µM] | IC50 (CDK2/CCNE1; [8]) [µM] | IC50 (CDK1/CCNB1; 25-250 nM, read-out: CDK1/CCNB IC50, 25-250 nM) [µM]
1 | Cc1c(-c2nccc3cnc(Nc4ccc(S(=O)(=O)Nc5nccn5C)cc4)cc23)ccc2c1cnn2CC(C)(C)O [Ex 867, 4-((5-(1-(2-hydroxy-2-methylpropyl)-4-methyl-1H-indazol-5-yl)-2,6-naphthyridin-3-yl)amino)-N-(1-methyl-1H-imidazol-2-yl)benzenesulfonamide] | 0.025 to 0.25 | 0.025 to 0.25 | > 0.25 | < 0.025 |  |  |  |  | 
2 | Cc1c(-c2nccc3cnc(Nc4ccc(S(=O)(=O)Nc5nc(F)cc(F)n5)cc4)cc23)ccc2c1cnn2CC(C)(C)O [Ex 868, N-(4,6-difluoropyrimidin-2-yl)-4-((5-(1-(2-hydroxy-2-methylpropyl)-4-methyl-1H-indazol-5-yl)-2,6-naphthyridin-3-yl)amino)benzenesulfonamide] |  |  | > 0.25 | < 0.025 | > 0.25 | > 0.25 |  |  | 
3 | CCOc1ccc(C#Cc2nccc3cnc(Nc4ccc(S(C)(=O)=O)cc4)cc23)cn1 [Ex 869, 5-((6-ethoxypyridin-3-yl)ethynyl)-N-(4-(methylsulfonyl)phenyl)-2,6-naphthyridin-3-amine] |  |  | > 0.25 |  | > 0.25 | > 0.25 | 0.025 to 0.25 |  | 
4 | CS(=O)(=O)c1ccc(Nc2cc3c(C#Cc4ccc(C(F)(F)F)nc4)nccc3cn2)cc1 [Ex 870, N-(4-(methylsulfonyl)phenyl)-5-((6-(trifluoromethyl)pyridin-3-yl)ethynyl)-2,6-naphthyridin-3-amine] |  |  | > 0.25 |  | > 0.25 | > 0.25 |  | > 0.25 | 
5 | CS(=O)(=O)c1ccc(Nc2cc3c(C#Cc4c(F)cncc4F)nccc3cn2)cc1 [Ex 871, 5-((3,5-difluoropyridin-4-yl)ethynyl)-N-(4-(methylsulfonyl)phenyl)-2,6-naphthyridin-3-amine] |  |  | > 0.25 |  | > 0.25 | > 0.25 | 0.025 to 0.25 |  | 
6 | CS(=O)(=O)c1ccc(Nc2cc3c(C#Cc4cc(F)ncc4F)nccc3cn2)cc1 [Ex 872, 5-((2,5-difluoropyridin-4-yl)ethynyl)-N-(4-(methylsulfonyl)phenyl)-2,6-naphthyridin-3-amine] |  |  | > 0.25 |  | > 0.25 | > 0.25 | 0.025 to 0.25 |  | 
7 | CS(=O)(=O)c1ccc(Nc2cc3c(C#Cc4cncc(F)c4)nccc3cn2)cc1 [Ex 873, 5-((5-fluoropyridin-3-yl)ethynyl)-N-(4-(methylsulfonyl)phenyl)-2,6-naphthyridin-3-amine] |  |  | > 0.25 |  | > 0.25 | > 0.25 | 0.025 to 0.25 |  | 
8 | CS(=O)(=O)c1ccc(Nc2cc3c(C#Cc4ccc(F)nc4)nccc3cn2)cc1 [Ex 874, 5-((6-fluoropyridin-3-yl)ethynyl)-N-(4-(methylsulfonyl)phenyl)-2,6-naphthyridin-3-amine] |  |  | > 0.25 |  | > 0.25 | > 0.25 | 0.025 to 0.25 |  | 
9 | CS(=O)(=O)c1ccc(Nc2cc3c(C#Cc4cc(F)c(F)c(F)c4)nccc3cn2)cc1 [Ex 875, N-(4-(methylsulfonyl)phenyl)-5-((3,4,5-trifluorophenyl)ethynyl)-2,6-naphthyridin-3-amine] |  |  | > 0.25 |  | > 0.25 | > 0.25 |  | > 0.25 | 
10 | CN1CCN(c2ccc(C#Cc3nccc4cnc(Nc5ccc(S(N)(=O)=O)cc5)cc34)cc2)CC1 [Ex 876, 4-((5-((4-(4-methylpiperazin-1-yl)phenyl)ethynyl)-2,6-naphthyridin-3-yl)amino)benzenesulfonamide] | 0.025 to 0.25 | 0.025 to 0.25 |  | < 0.025 |  |  |  |  | 0.025 to 0.25
11 | CC#Cc1nccc2cnc(Nc3ccc(S(=O)(=O)Nc4nccc(N5CCOCC5)n4)cc3)cc12 [Ex 878, N-(4-morpholinopyrimidin-2-yl)-4-((5-(prop-1-yn-1-yl)-2,6-naphthyridin-3-yl)amino)benzenesulfonamide] |  |  | > 0.25 |  | > 0.25 | > 0.25 | 0.025 to 0.25 |  | 
12 | CC#Cc1nccc2cnc(Nc3ccc(S(=O)(=O)Nc4nccc(OC)n4)cc3)cc12 [Ex 879, N-(4-methoxypyrimidin-2-yl)-4-((5-(prop-1-yn-1-yl)-2,6-naphthyridin-3-yl)amino)benzenesulfonamide] |  |  | > 0.25 |  | > 0.25 | > 0.25 | 0.025 to 0.25 |  | 
13 | Cc1c(-c2nccc3cnc(Nc4ccc(S(=O)(=O)Nc5ncc(F)cn5)cc4)cc23)ccc2c1cnn2CC(C)(C)O [Ex 880, N-(5-fluoropyrimidin-2-yl)-4-((5-(1-(2-hydroxy-2-methylpropyl)-4-methyl-1H-indazol-5-yl)-2,6-naphthyridin-3-yl)amino)benzenesulfonamide] |  |  | > 0.25 | < 0.025 | > 0.25 | > 0.25 |  |  | 
14 | Cc1c(-c2nccc3cnc(Nc4ccc(S(=O)(=O)Nc5nccc(F)n5)cc4)cc23)ccc2c1cnn2CC(C)(C)O [Ex 881, N-(4-fluoropyrimidin-2-yl)-4-((5-(1-(2-hydroxy-2-methylpropyl)-4-methyl-1H-indazol-5-yl)-2,6-naphthyridin-3-yl)amino)benzenesulfonamide] |  |  | > 0.25 |  | > 0.25 | > 0.25 | 0.025 to 0.25 |  | 
15 | COc1cncc(C#Cc2nccc3cnc(Nc4ccc(S(C)(=O)=O)cc4)cc23)c1 [Ex 882, 5-((5-methoxypyridin-3-yl)ethynyl)-N-(4-(methylsulfonyl)phenyl)-2,6-naphthyridin-3-amine] |  |  | > 0.25 |  | > 0.25 | > 0.25 | 0.025 to 0.25 |  | 
16 | Cc1nc[nH]c1C#Cc1nccc2cnc(Nc3ccc(S(C)(=O)=O)cc3)cc12 [Ex 883, 5-((4-methyl-1H-imidazol-5-yl)ethynyl)-N-(4-(methylsulfonyl)phenyl)-2,6-naphthyridin-3-amine] |  |  | > 0.25 |  | > 0.25 | > 0.25 | 0.025 to 0.25 |  | 
17 | O=c1ccc(C#Cc2nccc3cnc(Nc4cnc(O)c(N5CCNCC5)c4)cc23)n[nH]1 [Ex 886, 6-((7-((6-hydroxy-5-(piperazin-1-yl)pyridin-3-yl)amino)-2,6-naphthyridin-1-yl)ethynyl)pyridazin-3(2H)-one] |  |  | > 0.25 |  | > 0.25 | > 0.25 | 0.025 to 0.25 |  | 
18 | Cc1c(-c2nccc3cnc(Nc4cnc(O)c(N5CCNCC5)c4)cc23)ccc2c1cnn2CC(C)(C)O [Ex 888, 5-((5-(1-(2-hydroxy-2-methylpropyl)-4-methyl-1H-indazol-5-yl)-2,6-naphthyridin-3-yl)amino)-3-(piperazin-1-yl)pyridin-2-ol] |  |  | > 0.25 |  | > 0.25 | > 0.25 | 0.025 to 0.25 |  | 
19 | CC#Cc1nccc2cnc(Nc3ccc(S(=O)(=O)Nc4ncc(C)cn4)cc3)cc12 [Ex 889, N-(5-methylpyrimidin-2-yl)-4-((5-(prop-1-yn-1-yl)-2,6-naphthyridin-3-yl)amino)benzenesulfonamide] |  |  | > 0.25 |  | > 0.25 | > 0.25 | 0.025 to 0.25 |  | 
20 | CC#Cc1nccc2cnc(Nc3ccc(S(=O)(=O)Nc4nc(OC)cc(OC)n4)cc3)cc12 [Ex 890, N-(4,6-dimethoxypyrimidin-2-yl)-4-((5-(prop-1-yn-1-yl)-2,6-naphthyridin-3-yl)amino)benzenesulfonamide] |  |  | > 0.25 |  | > 0.25 | > 0.25 | 0.025 to 0.25 |  | 
21 | CC#Cc1nccc2cnc(Nc3ccc(S(=O)(=O)Nc4nccc(C(F)(F)F)n4)cc3)cc12 [Ex 891, 4-((5-(prop-1-yn-1-yl)-2,6-naphthyridin-3-yl)amino)-N-(4-(trifluoromethyl)pyrimidin-2-yl)benzenesulfonamide] |  |  | > 0.25 |  | > 0.25 | > 0.25 | 0.025 to 0.25 |  | 
22 | Cc1c(-c2nccc3cnc(Nc4ccc(S(=O)(=O)Nc5nccc(N6CCN(C)CC6)n5)cc4)cc23)ccc2c1cnn2CC(C)(C)O [Ex 892, 4-((5-(1-(2-hydroxy-2-methylpropyl)-4-methyl-1H-indazol-5-yl)-2,6-naphthyridin-3-yl)amino)-N-(4-(4-methylpiperazin-1-yl)pyrimidin-2-yl)benzenesulfonamide] |  |  | > 0.25 | < 0.025 | > 0.25 | > 0.25 |  |  | 
